Like-named read-outs stand apart in the source and are kept apart here. *1 amine or outer side, *2 acyl side, *3 side chain or, on linkers, in order; H or OH if unused. Where a SMILES comes first, the peptide text is derived from it. Side-chain parts run from the residue outwards. [ ]: non-standard residue; d: D form. γGlu = O=C(O)[C@H](CCC(=O)[*:2])N[*:1]; Dap = NC[C@H](N)C(=O)O; Aoc = NCCCCCCCC(=O)O; CO = O=C([*:1])[*:2]
Assays:
PSMA = PSMA (Homo sapiens, UniProt Q04609); conditions: PSMA ligand of formula drawing 51, R^1 as drawn; cited from earlier work
LNCaP cells [1] = conditions: 1 hour
Description: Quantification of PSMA Molecules on LNCaP Cells. […] Cells were rinsed three times with 1.0 mL of RPMI. Cells were lysed with tris-buffer, transferred to individual gamma scintigraphy vials, and radioactivity was counted. The plot of cell bound radioactivity verses concentration of radiolabeled compound was used to calculate number of PSMA/LNCaP cell. The radioactivity of a 30 nM sample of SK28-99 mTc (20 uL) was counted. At 4° C. (to prevent endocytosis of PSMA), the number of moles in the 30 nM sample=30 nM×20 uL=(30×10-9 mol/L)×(20×10-6 L)=6×10-13 mol.

LNCaP tumors [2] = assay: In vivo imaging of tumors in mouse using PSMA-99mTc compounds; conditions: mice with LNCaP tumors, 4 hours after intraperitoneal injection
Description: In Vivo Imaging of Tumors in Mouse Using PSMA-99 mTc. When tumors reached a volume of between 500-600 mm3, 99 mTc-labeled compounds (e.g. SK28-99 mTc, SK60-99 mTc, etc) prepared as described, were administered through intraperitoneal injection […]. Four hours later, animals were euthanized and blood was taken by cardio punch and transferred to individual gamma scintigraphy vials per each animal. The imaging experiments were carried out using either a Kodak or gamma scintigraphic camera imager (FIGS. 6A, 6B, 6C, 7A, 7B and 7C). [Note: PMPA was injected 30 minutes before injecting SK28 -99 mTc.
FIGS. 6A, 6B, and 6C show images of mice with human LNCaP tumors using SK28-99 mTc (radiolabeled 14 Atom spacer).

LNCaP tumors [3] = assay: In vivo imaging of LNCaP tumors in mouse using DUPA-99mTc
Description: (§1) In Vivo Imaging of Tumors in Mouse Using dupa-99 mTc. To further establish the specificity of our DUPA conjugates for prostate cancer cells, DUPA-99 mTc was injected intraperitoneally (i.p.) into athymic nude mice bearing LNCaP tumors on their shoulders. After 4 h to allow for clearance of unbound conjugate, the distribution of the retained DUPA-99 mTc was imaged by gamma scintigraphy. […] In vivo specificity of the PSMA-targeted imaging agent was further tested by prior administration of excess PMPA to block all PSMA sites before DUPA-99 mTc administration. […] To further document this specificity, the radiotracer was also administered to two PSMA negative mouse xenograft models [A549 (a human lung cancer cell line) and KB (a human nasopharyngeal cancer cell line)], and again whole body images were taken. […] These studies thus confirm that very little DUPA-99 mTc binding occurs to sites unrelated to PSMA in vivo.
(§2) Overlay of whole-body radioimages on white light images of mice bearing LNCaP tumors that were treated with DUPA-99 mTc in the absence 7D(a, c) or presence 7D(b, d) of 100-fold molar excess PMPA. Overlay of radioimages on white light images were also obtained of mice bearing an A549 tumor 7D(e) or a KB tumor 7D(f) that were similarly treated with DUPA-99 mTc. Except in images 7D(a) and 7D(b), kidneys were shielded with lead pads. […]

A549 tumors = conditions: mouse, in vivo
Description: as §1, §2

KB tumors = conditions: mouse, in vivo
Description: as §1, §2

LNCaP cells [4] = assay: [3H]-Thymidine incorporation assay, toxicity to LNCaP cells in culture; type: cell-based, human; conditions: LNCaP cells pulsed 2 h, additional 66 h in fresh medium
Description: Evaluation of a PSMA-Targeted Therapeutic Agent in Vitro. Analysis of SK71 (FIG. 12A), SK77 (FIG. 12B), SK37 (FIG. 12C), and SK45 (FIG. 12D), toxicity to LNCaP cells in culture. LNCaP cells were pulsed for 2 h with increasing concentrations of SK71 or SK77 in the presence (▴) or absence (▪) of 100-fold molar excess PMPA. After 2× washes, cells were incubated an additional 66 h in fresh medium at 37° C. Cell viability was then analyzed using the [3H]-thymidine incorporation assay, as described herein. Data were obtained in a single experiment and error bars represent s.d. (n=3 wells per concentration).

[5] = Single dose toxicity in live mice; conditions: mouse, in vivo, single dosing
Text: Single dose toxicity in live mice. Administration of SK71 was in a single dose as indicated. […] (See FIG. 9A)

[6] = Multiple dose toxicity in live mice; type: in vivo, mouse
Description: Multiple dose toxicity in live mice. SK71 was administered in 5 doses on alternate days (M, W, F, M, W). […] (See FIG. 9B)

LNCaP tumors [7] = assay: Efficacy study compared to control group and competition group; type: in vivo, mouse
Description: Efficacy study compared to control group and competition group. Animals were treated with (a) the conjugate SK71 administered in 5 doses on alternate days (M, W, F, M, W) at […], and compared to (b) vehicle treated animals (FIG. 10B), and to (c) animals treated with the conjugate in conjunction with PMPA. […] The competition experiments (See FIG. 10C) indicate that the successful treatment of the implanted tumor is related to selective or specific targeting of PSMA mediated delivery.

Chain of PSMA (Q04609 whole entry, species assumed): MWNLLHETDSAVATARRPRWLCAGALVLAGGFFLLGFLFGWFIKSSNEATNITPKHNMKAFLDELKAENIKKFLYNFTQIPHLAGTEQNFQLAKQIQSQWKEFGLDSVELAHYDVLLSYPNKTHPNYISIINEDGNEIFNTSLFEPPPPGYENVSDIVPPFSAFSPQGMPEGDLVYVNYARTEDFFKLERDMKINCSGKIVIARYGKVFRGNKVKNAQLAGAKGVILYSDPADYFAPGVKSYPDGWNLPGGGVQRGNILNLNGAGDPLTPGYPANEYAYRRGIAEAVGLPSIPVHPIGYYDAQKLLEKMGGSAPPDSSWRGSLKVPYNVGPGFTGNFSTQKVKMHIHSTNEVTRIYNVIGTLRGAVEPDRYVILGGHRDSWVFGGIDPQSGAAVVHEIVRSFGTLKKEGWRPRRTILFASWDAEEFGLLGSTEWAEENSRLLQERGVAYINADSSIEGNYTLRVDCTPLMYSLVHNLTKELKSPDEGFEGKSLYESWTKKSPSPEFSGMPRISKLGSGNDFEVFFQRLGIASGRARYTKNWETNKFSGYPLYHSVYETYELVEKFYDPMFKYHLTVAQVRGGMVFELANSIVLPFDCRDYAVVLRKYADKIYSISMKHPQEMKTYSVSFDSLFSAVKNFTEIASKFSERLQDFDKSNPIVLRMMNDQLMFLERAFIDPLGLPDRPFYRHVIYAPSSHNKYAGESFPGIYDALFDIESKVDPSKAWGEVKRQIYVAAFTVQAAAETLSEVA

O=C(O)CCC(NC(=O)NC(CCC(=O)O)C(=O)O)C(=O)O (centres unmarked)
Ki (PSMA): 8 nM

O=C(O)CCC(NC(=O)NC(CCC(=O)O)c1nnn[nH]1)C(=O)O (centres unmarked)
Ki (PSMA): 335 nM

N[C@@H](CNC(=O)[C@H](Cc1ccccc1)NC(=O)[C@H](Cc1ccccc1)NC(=O)CCCCCCCNC(=O)CC[C@H](NC(=O)N[C@@H](CCC(=O)O)C(=O)O)C(=O)O)C(=O)N[C@@H](CC(=O)O)C(=O)N[C@@H](CS)C(=O)O [SK28-^99mTc, metal not drawn] (H-[Dap]([Phe-Phe-Aoc-γGlu-CO-Glu])-Asp-Cys-OH)
cell bound radioactivity at the saturation point (LNCaP cells [1]; 4° C.): 12 000 cpm
cell bound radioactivity at the saturation point (LNCaP cells [1]; 37° C.): 33,000 cpm
distribution of radioactivity (imaging) (LNCaP tumors [2]): distribution was limited to kidneys
tumor uptake after PMPA block (LNCaP tumors [3]; LNCaP tumors, prior administration of 100-fold molar excess PMPA): no DUPA-99 mTc uptake
distribution of retained radiotracer (gamma scintigraphy) (LNCaP tumors [3]; nude mice bearing LNCaP tumors, 4 h after i.p. injection, without PMPA): accumulated mainly in the PSMA positive LNCaP tumor
radioactivity in tumor (A549 tumors): no radioactivity was observed
radioactivity in tumor (KB tumors): no radioactivity was observed

CC[C@@]1(OC(=O)OCCSSC[C@H](NC(=O)[C@H](CC(=O)O)NC(=O)[C@@H](N)CNC(=O)[C@H](Cc2ccccc2)NC(=O)[C@H](Cc2ccccc2)NC(=O)CCCCCCCNC(=O)CC[C@H](NC(=O)N[C@@H](CCC(=O)O)C(=O)O)C(=O)O)C(=O)O)C(=O)OCc2c1cc1n(c2=O)Cc2cc3ccccc3nc2-1 [SK45]
IC50 (LNCaP cells [4]): ~29 nM

CCCC(=O)OCN(C(=O)[C@@H](NC(=O)[C@H]1CCCCN1C)C(C)CC)[C@H](C[C@@H](OC(C)=O)c1nc(C(=O)N[C@@H](Cc2ccc(O)cc2)C[C@H](C)C(=O)NNC(=O)OCCSSC[C@H](NC(=O)[C@H](Cc2ccccc2)NC(=O)[C@H](CC(=O)O)NC(=O)CC[C@H](NC(=O)CC[C@H](NC(=O)N[C@@H](CCC(=O)O)C(=O)O)C(=O)O)C(=O)O)C(=O)O)cs1)C(C)C (some centres unmarked) [SK71]
IC50 (LNCaP cells [4]): ~2 nM
MTD [5]: ~4.5 µmol/kg
visible tumors ([6]; LNCaP tumors, 2 and 4 μmol/kg groups, after 18 days of treatment): no mice in the two treated groups had visible tumors
MTD ([6]; mouse, in vivo, multiple dosing, 5 doses on alternate days, mice): 2 µmol/kg
tumor size during treatment (LNCaP tumors [7]; 1 μmol/kg, 5 doses on alternate days, starting tumor size approximately 250 mm3): successive decrease in tumor size
tumor volume after dosing (LNCaP tumors [7]; 1 μmol/kg, at the cessation of dosing): tumor volumes rebounded
tumor response at higher dose (LNCaP tumors [7]; at least 2 μmol/kg, during the testing period): complete disappearance of the tumor
